Source: PubChem BioAssay (NCI)
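Tested at 5 concentrations; 48 h exposure; 96-well plates; endpoints linearly interpolated, else capped at highest concentration. GI50 = concentration required for 50% inhibition of growth. TGI marks complete inhibition of growth.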

How the values were obtained:
Test in all cases: DTP human tumour cell line panel, 48 h
[1] = test system: LXFL 529 NSCLC
[2] = test system: SNB-19 CNS
[3] = test system: HCT-15 colon
[4] = test system: OVCAR-5 ovarian
[5] = test system: KM20L2 colon
[6] = test system: T-47D breast
[7] = test system: SNB-78 CNS
[8] = test system: CAKI-1 renal
[9] = test system: UACC-257 melanoma
[10] = test system: DLD-1 colon

Row | SMILES | TGI [1] [µM] | TGI [2] [µM] | TGI [3] [µM] | TGI [4] [µM] | TGI [5] [µM] | TGI [6] [µM] | TGI [7] [µM] | TGI [8] [µM] | TGI [9] [µM] | GI50 [2] [µM] | GI50 [3] [µM] | GI50 [4] [µM] | GI50 [5] [µM] | GI50 [8] [µM] | GI50 [9] [µM] | TGI [10] [µM] | GI50 [6] [µM]
1 | CCOC(=O)Oc1cc2c(c(OC)c1OC)-c1ccc(OC)c(=O)cc1C(NC(C)=O)CC2 (centres undefined) | > 100 | 92.4 | > 100 | > 100 | 0.0866 | > 100 | > 100 | > 100 | > 100 | – | – | – | – | – | – | – | –
2 | O=C([CH-]C(=O)c1ccccc1)c1ccccc1.[CH-]1CCCCC1.[CH-]1CCCCC1.[CH-]1CCCCC1.[Sn+4] | – | 18.4 | 18.4 | 39.7 | 26.3 | – | – | 18.1 | 19.2 | 5.43 | 5.67 | 22.8 | 12.3 | 4.52 | 4.29 | – | –
3 | CC1=C(C(=O)Nc2ccccc2)C(c2cccc3ccccc23)C(C(=O)Nc2ccccc2)=C(C)N1 | 34.4 | 72.5 | 30.5 | 44.6 | 36.2 | – | 94.3 | 38.2 | 39.2 | – | – | – | – | – | – | > 100 | –
4 | ClC/C=C/COC1CCCCO1 (centres undefined) | > 100 | > 100 | > 100 | > 100 | > 100 | – | > 100 | > 100 | > 100 | – | – | – | – | – | – | > 100 | –
5 | O=C(CC1OC(O)C(Cl)=C1Cl)c1cccnc1 (centres undefined) | > 100 | > 100 | > 56.8 | > 100 | > 100 | – | > 100 | > 100 | > 100 | – | – | – | – | – | – | – | –
6 | CCCCCCCCCCCCCC[N+](C)(C)CCCCCCCCCCCCCC | – | 10 | > 100 | 9.91 | – | 7.73 | – | 24.3 | 8.61 | 2.38 | 3.33 | 2.92 | – | 3.56 | 2.49 | – | 2.2
7 | O=C(/C=C/c1ccccc1F)c1ccc(Cl)c(Cl)c1 | 35.6 | > 100 | > 87 | > 100 | > 100 | – | > 100 | > 80.2 | > 100 | – | – | – | – | – | – | > 62.9 | –
8 | O=C(/C=C\c1ccc([N+](=O)[O-])cc1)c1ccccc(=O)c1O | – | 16.8 | 4.2 | 9.92 | – | 23.8 | – | 4.61 | 7.85 | – | – | – | – | – | – | – | –
9 | CN(C)c1ccc2oc(=O)c3ccccc3c2c1 | – | 70.2 | > 100 | > 100 | – | > 100 | – | > 100 | > 100 | – | – | – | – | – | – | – | –
10 | Cc1ccccc1NC(=O)c1sc2nc(C)c(C(=O)/C=C/c3ccccc3)cc2c1N | – | 3.58 | 1.94 | 2.62 | – | 2.34 | – | 2.68 | 8.71 | 1.16 | 0.836 | 1.01 | – | 1.08 | 1.83 | – | 0.975
11 | CCN(CC)CCCNc1cc(OC)cc2nc3cc(Cl)ccc3nc12 | – | 11.7 | 35.4 | 16.3 | – | 20.7 | – | 5.03 | 3.31 | 2.77 | 4.12 | 3.56 | – | 1.75 | 1.83 | – | 6.62
12 | COC(=O)c1ccc(CN2C(=O)C(Cl)=C(Nc3cccc(Cl)c3C)C2=O)cc1 | – | > 100 | 78.9 | > 100 | – | > 100 | – | 71.6 | > 100 | > 100 | 28.4 | 58.1 | – | 26.5 | 45.6 | – | > 100
13 | O=C1C=CC=C/C1=C1/SC(c2ccccc2)=C(O)N1c1ccccc1 | > 100 | > 100 | > 100 | > 100 | > 100 | – | > 100 | > 100 | > 100 | – | – | – | – | – | – | – | –
14 | COCc1c(-c2cc3cc(C)cc(OC)c3s2)c2c(N)ncnn2c1CN1CCNC(=O)C1 | – | > 100 | 83.7 | 77 | – | 47.4 | – | 44.2 | 34.6 | 8.21 | 3.63 | 4.11 | – | 4.88 | 4.06 | – | 4.84
15 | COc1ccc(C/C(=C(\C)c2ccc(OCCN3CCCC3)cc2)c2ccc(OCCN3CCCC3)cc2)cc1 | – | 4.75 | 3.05 | 3.72 | – | 3.37 | – | 3.09 | 3.31 | 2.12 | 1.51 | 1.8 | – | 1.66 | 1.76 | – | 1.69
16 | O=c1[nH]c2ccccc2nc1/C=C(\O)c1ccccc1O | > 100 | > 100 | > 100 | > 100 | > 100 | – | > 100 | > 100 | > 100 | – | – | – | – | – | – | > 100 | –
17 | Cc1cc2c(C)n(Cc3ccccc3Cl)nc2c(C(=O)O)c1C | > 100 | > 100 | > 100 | > 100 | > 100 | – | > 100 | – | > 100 | – | – | – | – | – | – | > 100 | –
18 | CC1/C(=N\O)CC(c2ccccc2)N(C)C1c1ccccc1 (centres undefined) | > 100 | > 100 | > 100 | > 100 | > 100 | – | > 100 | > 100 | > 100 | – | – | – | – | – | – | > 100 | –
19 | CCc1ccc(CCC(=O)Nc2ncc(Cc3ccc(Cl)cc3)s2)o1 | – | > 100 | > 100 | > 100 | – | > 100 | – | > 100 | > 100 | 0.463 | 0.356 | 0.615 | – | 0.451 | – | – | 1.48
20 | Cc1ccc(S(=O)(=O)SC(C)(C)C)cc1 | > 100 | > 100 | 53 | > 76 | – | > 100 | > 100 | 41.4 | 50.3 | – | – | – | – | – | – | 35.3 | –
